Tested on: PC3 cells
Experiment: Immunostaining of α-tubulin and β-actin in PC3 cells
Format: cell-based
Conditions: 24 hours
Experimental: Immunofluorescence and immunostaining on cell lines and tumor samples were performed as described in Wegiel et al, Cancer research 2013, 73(23), 7009-21. Anti-mouse STMN1, anti-P (Ser10)-Histone H3, and α-tubulin antibody were obtained from Cell Signaling. β-actin antibody was obtained from Sigma-Aldrich. […] After immunofluorescence staining, the number of P-Histone H3 was quantified per field of view at 40× magnification using Zeiss Axiovert Microscope.

## Cn1ccc2cc(/C=C3\CCc4ccc(F)cc4C3=O)ccc21 [Compound 6, (2E)-7-fluoro-2-[(1-methyl-1H-indol-5-yl)methylidene]-1,2,3,4-tetrahydronaphthalen-1-one]
1 μM
  β-actin microfilament cytoskeleton: disintegrated β-actin microfilament cytoskeleton
Compound 6 1 μM or docetaxel 20 nM
  microtubule stability (α-tubulin immunostaining): suppressed mitotic spindle formation, as well as accumulation of α-tubulin and microtubules

Source: US10512631B2, “Chalcone compounds” (Beth Israel Deaconess Medical Center, Inc., priority 2015, dated 2019)
